Test results: patent publication US10899776B2, “Antiviral and antibacteria agents based on quaternary ammonium compound complexed with boric acid and its derivatives” (B-Organic Films Corp, priority 2015, dated 2021)
“And” between values parts separate entries of the source, which are not always exact repeats. Identical values can stand only once.

What was measured:
[1] = commercial diet supplemented 5 mg/g, fed ad libitum up to 28 days
[2] = system: Vibrio parahaemolyticus CAIM 170; details: V. parahaemolyticus 1×10^6 cfu/mL, after 96 h; dose 5 mg/g of feed; untreated infected about 30%
SOD = details: RT q-PCR, treated vs non-treated shrimp; feed 5 mg/g
Method: (§1) Primer design is performed in the online application «primer3plus» (Untergasser, A., Nijveen, H., Rao, W., Bisseling, T., Geurts, R., Leunissen, J. A. M. 2007, Nucleic Acids Research, 35: 71-74) based in the following features: 18-24 nt length; GC content 35-65% product size 80-250 bp; and ≤2 GC clamp (Wang, X. and Seed, B., 2007). The primers are evaluated in the online application «Oligo Evaluator» Sigma Aldrich™ (St' Louis, Mo.) to check thermodynamic characteristics based in self-aligned primer and primer-dimer structures. The primers selected are ≤−2 Kcal/mol and evaluated using an in silico PCR software «Primer Digital» (Kalender et al., 2011). RNA extracts used for the microarray hybridizations are converted to cDNA using promega GoScript™ Reverse Transcription System (Promega Corporation, Madison, Wis., USA) and SsoFast™ EvaGreen® Supermix (Bio-Rad, Hercules, Calif., USA) for RT-qPCR.

Toll-Like Receptor = details: RT q-PCR, treated vs non-treated shrimp; feed 5 mg/g
Method: as §1

white shrimp L. vannamei = details: in vivo

C[N+](C)(C)CCOB1OB2OB(O1)OB1OB(O2)O1.[Cl-] [choline/pentaborate complex]
increment in mean weight compared with control group [1]: 20% | survival [2]: > 80% and 84% | increase of expression of SOD gene (SOD): more than 200 fold | increase of expression of Toll-Like Receptor gene (Toll-Like Receptor): more than 200 fold | toxicity (summary statement) (white shrimp L. vannamei): not toxic
